The results in this text go back to patent US20130297040A1, “IMPLANT HAVING A CORE AND A TUBE ENCASING THE CORE” (UNIVERSITE DE LIEGE, priority 2011, published 2013).

The data set in a line: Pharmacokinetic study of celecoxib implants in Wistar rats.

In the case of `NS(=O)(=O)c1ccc(-n2nc(C(F)(F)F)cc2-c2ccc(C(=O)O)cc2)cc1` [HOOC-celecoxib], the “presence of the metabolite HOOC-celecoxib after implantation” value (celecoxib implant) is listed as “present in the rats during more than two years”. Also, the “concentration of HOOC-celecoxib in the serum and in the PF, intraperitoneal vs subcutaneous implant” value (serum and peritoneal liquid) is given as “No differences”.

`NS(=O)(=O)c1ccc(-n2nc(C(F)(F)F)cc2-c2ccc(CO)cc2)cc1` [HO-celecoxib]: the “presence of the metabolite HO-celecoxib after implantation” value (celecoxib implant) is recorded as “present in the rats during more than two years”. Besides, the “concentration of HO-celecoxib in peritoneal liquid, intraperitoneal vs subcutaneous implant” value (peritoneal liquid) is on record as “tendency to a higher concentration”. The “concentration of HO-celecoxib in serum, intraperitoneal vs subcutaneous implant” value (serum) is given as “No differences”.

As for `Cc1ccc(-c2cc(C(F)(F)F)nn2-c2ccc(S(N)(=O)=O)cc2)cc1` [celecoxib, reference compound], under “after implantation of celecoxib implant”, the metabolism of celecoxib entry is recorded as “metabolized in rats”.
